# Reference: patent US10227344B2, “CK2 inhibitors, compositions and methods thereof” (Polaris Pharmaceuticals, Inc., priority 2016, dated 2019)
# Assays:
# Format in all cases: cell-based
# [1] = tested on: MDA-MB-453; assay: Cancer cell panel, cell viability (resazurin): Breast, MDA-MB-453; conditions: MDA-MB-453 (Breast), 72 hours; labelled drug combined with Example 3
# [2] = tested on: ACHN; assay: Cancer cell panel, cell viability (resazurin): Renal, ACHN; conditions: 72 hours, labelled drug combined with Example 3
# [3] = tested on: EOL-1; assay: Cancer cell panel, cell viability (resazurin): Leukemia, EOL-1; conditions: EOL-1 (Leukemia), 72 hours; labelled drug combined with Example 3
# Procedure: (§1) Cells were plated in 96-well plates and treated for 72 hours with a serially diluted CK2 inhibitor or anti-cancer drug or their combination. The suspension cell lines were treated right after plating, while the adherent cells were allowed to attach overnight prior to the start of the treatment.
# (§2) Cell viability was determined by adding resazurin to cell cultures and measuring fluorescence with a plate reader. Relative cell viability was calculated by dividing the cell viability signal from a test sample by that of a non-treated control. […] Bliss Independence and Highest Single Agent models were used to determine if there is synergy, additivity or antagonism between the CK2 inhibitor and an anti-cancer drug.
# [4] = tested on: Caov-3; assay: Cancer cell panel, cell viability (resazurin): Ovarian, Caov-3; conditions: Caov-3 (Ovarian), 72 hours; labelled drug combined with Example 3
# Procedure: as §1, §2
# [5] = tested on: MDA-MB-157; assay: Cancer cell panel, cell viability (resazurin): Breast, MDA-MB-157; conditions: MDA-MB-157 (Breast), 72 hours; labelled drug combined with Example 3
# [6] = tested on: Caki-1; assay: Cancer cell panel, cell viability (resazurin): Renal, Caki-1; conditions: Caki-1 (Renal), 72 hours; labelled drug combined with Example 3
# [7] = tested on: A2780; assay: Cancer cell panel, cell viability (resazurin): Ovarian, A2780; conditions: 72 hours, labelled drug combined with Example 3
# [8] = tested on: LoVo; assay: Cancer cell panel, cell viability (resazurin): Colon, LoVo; conditions: 72 hours, labelled drug combined with Example 3
# [9] = tested on: DLD-1; assay: Cancer cell panel, cell viability (resazurin): Colon, DLD-1; conditions: DLD-1 (Colon), 72 hours; labelled drug combined with Example 3
# Procedure: as §1, §2
# [10] = tested on: WM-115; assay: Cancer cell panel, cell viability (resazurin): Melanoma, WM-115; conditions: WM-115 (Melanoma), 72 hours; labelled drug combined with Example 3
# Procedure: as §1, §2
# [11] = tested on: RPMI8226; assay: Cancer cell panel, cell viability (resazurin): multiple myeloma, RPMI8226; conditions: 72 hours, labelled drug combined with Example 3
# [12] = tested on: Raji; assay: Cancer cell panel, cell viability (resazurin): Burkitt's Lymphoma, Raji; conditions: 72 hours, labelled drug combined with Example 3
# Procedure: as §1, §2
# [13] = tested on: H1975; assay: Cancer cell panel, cell viability (resazurin): NSCLC, H1975; conditions: 72 hours, labelled drug combined with Example 3
# [14] = tested on: HCT116; assay: Cancer cell panel, cell viability (resazurin): Colon, HCT116; conditions: 72 hours, labelled drug combined with Example 3
# [15] = tested on: T47D; assay: Cancer cell panel, cell viability (resazurin): Breast, T47D; conditions: 72 hours, labelled drug combined with Example 3
# [16] = tested on: HL60; assay: Cancer cell panel, cell viability (resazurin): Leukemia, HL60; conditions: 72 hours, labelled drug combined with Example 3
# [17] = tested on: H2122; assay: Cancer cell panel, cell viability (resazurin): NSCLC, H2122; conditions: 72 hours, labelled drug combined with Example 3
# [18] = tested on: U87MG; assay: Cancer cell panel, cell viability (resazurin): Glioblastoma, U87MG; conditions: 72 hours, labelled drug combined with Example 3
# [19] = tested on: MeWO; assay: Cancer cell panel, cell viability (resazurin): Melanoma, MeWO; conditions: 72 hours, labelled drug combined with Example 3
# Procedure: as §1, §2
# [20] = tested on: MDA-MB-231; assay: Cancer cell panel, cell viability (resazurin): Breast, MDA-MB-231; conditions: MDA-MB-231 (Breast), 72 hours; labelled drug combined with Example 3
# Procedure: as §1, §2
# [21] = tested on: Ramos; assay: Cancer cell panel, cell viability (resazurin): Burkitt's Lymphoma, Ramos; conditions: 72 hours, labelled drug combined with Example 3
# Procedure: as §1, §2
# [22] = tested on: SK-MEL-24; assay: Cancer cell panel, cell viability (resazurin): Melanoma, SK-MEL-24; conditions: SK-MEL-24 (Melanoma), 72 hours; labelled drug combined with Example 3
# [23] = tested on: H23; assay: Cancer cell panel, cell viability (resazurin): NSCLC, H23; conditions: 72 hours, labelled drug combined with Example 3
# [24] = tested on: BT-474; assay: Cancer cell panel, cell viability (resazurin): Breast, BT-474; conditions: BT-474 (Breast), 72 hours; labelled drug combined with Example 3
# Procedure: as §1, §2
# [25] = tested on: LnCap; assay: Cancer cell panel, cell viability (resazurin): Prostate, LnCap; conditions: 72 hours, labelled drug combined with Example 3
# Procedure: as §1, §2
# [26] = tested on: MOLT4; assay: Cancer cell panel, cell viability (resazurin): Leukemia, MOLT4; conditions: 72 hours, labelled drug combined with Example 3
# [27] = tested on: H460; assay: Cancer cell panel, cell viability (resazurin): NSCLC, H460; conditions: 72 hours, labelled drug combined with Example 3
# [28] = tested on: 786-O; assay: Cancer cell panel, cell viability (resazurin): Renal, 786-O; conditions: 786-O (Renal), 72 hours; labelled drug combined with Example 3
# Procedure: as §1, §2
# [29] = tested on: U266; assay: Cancer cell panel, cell viability (resazurin): multiple myeloma, U266; conditions: 72 hours, labelled drug combined with Example 3
smiles,measurement,setting,value
"O=c1[nH]cc(F)c(=O)[nH]1 [Example 5FU, 5-FU]","synergy, additivity or antagonism of the combination of Example 3 with the anti-cancer drug",[1],+ (Additive relative to each agent alone (CI = 0.9-1 by Bliss Independence Model and <0.9 by Highest Single Agent Model))
same,"synergy, additivity or antagonism of the combination of Example 3 with the anti-cancer drug",[2],+ (Additive relative to each agent alone (CI = 0.9-1 by Bliss Independence Model and <0.9 by Highest Single Agent Model))
same,"synergy, additivity or antagonism of the combination of Example 3 with the anti-cancer drug",[3],+ (Additive relative to each agent alone (CI = 0.9-1 by Bliss Independence Model and <0.9 by Highest Single Agent Model))
same,"synergy, additivity or antagonism of the combination of Example 3 with the anti-cancer drug",[4],+ (Additive relative to each agent alone (CI = 0.9-1 by Bliss Independence Model and <0.9 by Highest Single Agent Model))
same,"synergy, additivity or antagonism of the combination of Example 3 with the anti-cancer drug",[5],+ + (Slight synergy relative to each agent alone (CI = 0.75-0.9 by Bliss Independence Model))
same,"synergy, additivity or antagonism of the combination of Example 3 with the anti-cancer drug",[6],+ (Additive relative to each agent alone (CI = 0.9-1 by Bliss Independence Model and <0.9 by Highest Single Agent Model))
same,"synergy, additivity or antagonism of the combination of Example 3 with the anti-cancer drug",[7],+ + (Slight synergy relative to each agent alone (CI = 0.75-0.9 by Bliss Independence Model))
same,"synergy, additivity or antagonism of the combination of Example 3 with the anti-cancer drug",[8],+ (Additive relative to each agent alone (CI = 0.9-1 by Bliss Independence Model and <0.9 by Highest Single Agent Model))
same,"synergy, additivity or antagonism of the combination of Example 3 with the anti-cancer drug",[9],+ (Additive relative to each agent alone (CI = 0.9-1 by Bliss Independence Model and <0.9 by Highest Single Agent Model))
same,"synergy, additivity or antagonism of the combination of Example 3 with the anti-cancer drug",[10],+ (Additive relative to each agent alone (CI = 0.9-1 by Bliss Independence Model and <0.9 by Highest Single Agent Model))
same,"synergy, additivity or antagonism of the combination of Example 3 with the anti-cancer drug",[11],+ (Additive relative to each agent alone (CI = 0.9-1 by Bliss Independence Model and <0.9 by Highest Single Agent Model))
same,"synergy, additivity or antagonism of the combination of Example 3 with the anti-cancer drug",[12],+ (Additive relative to each agent alone (CI = 0.9-1 by Bliss Independence Model and <0.9 by Highest Single Agent Model))
same,"synergy, additivity or antagonism of the combination of Example 3 with the anti-cancer drug",[13],− − (Antagonistic relative to each agent alone (CI = 1.2-1.49 by Highest Single Agent Model))
same,"synergy, additivity or antagonism of the combination of Example 3 with the anti-cancer drug",[14],+ + (Slight synergy relative to each agent alone (CI = 0.75-0.9 by Bliss Independence Model))
same,"synergy, additivity or antagonism of the combination of Example 3 with the anti-cancer drug",[15],+ (Additive relative to each agent alone (CI = 0.9-1 by Bliss Independence Model and <0.9 by Highest Single Agent Model))
same,"synergy, additivity or antagonism of the combination of Example 3 with the anti-cancer drug",[16],+ (Additive relative to each agent alone (CI = 0.9-1 by Bliss Independence Model and <0.9 by Highest Single Agent Model))
same,"synergy, additivity or antagonism of the combination of Example 3 with the anti-cancer drug",[17],+ (Additive relative to each agent alone (CI = 0.9-1 by Bliss Independence Model and <0.9 by Highest Single Agent Model))
same,"synergy, additivity or antagonism of the combination of Example 3 with the anti-cancer drug",[18],+ (Additive relative to each agent alone (CI = 0.9-1 by Bliss Independence Model and <0.9 by Highest Single Agent Model))
same,"synergy, additivity or antagonism of the combination of Example 3 with the anti-cancer drug",[19],− (Slightly antagonistic relative to each agent alone (CI = 1.1-1.2 by Highest Single Agent Model))
same,"synergy, additivity or antagonism of the combination of Example 3 with the anti-cancer drug",[20],+ (Additive relative to each agent alone (CI = 0.9-1 by Bliss Independence Model and <0.9 by Highest Single Agent Model))
same,"synergy, additivity or antagonism of the combination of Example 3 with the anti-cancer drug",[21],+ + (Slight synergy relative to each agent alone (CI = 0.75-0.9 by Bliss Independence Model))
same,"synergy, additivity or antagonism of the combination of Example 3 with the anti-cancer drug",[22],+ (Additive relative to each agent alone (CI = 0.9-1 by Bliss Independence Model and <0.9 by Highest Single Agent Model))
same,"synergy, additivity or antagonism of the combination of Example 3 with the anti-cancer drug",[23],+ (Additive relative to each agent alone (CI = 0.9-1 by Bliss Independence Model and <0.9 by Highest Single Agent Model))
same,"synergy, additivity or antagonism of the combination of Example 3 with the anti-cancer drug",[24],+ (Additive relative to each agent alone (CI = 0.9-1 by Bliss Independence Model and <0.9 by Highest Single Agent Model))
same,"synergy, additivity or antagonism of the combination of Example 3 with the anti-cancer drug",[25],+ (Additive relative to each agent alone (CI = 0.9-1 by Bliss Independence Model and <0.9 by Highest Single Agent Model))
same,"synergy, additivity or antagonism of the combination of Example 3 with the anti-cancer drug",[26],+ + (Slight synergy relative to each agent alone (CI = 0.75-0.9 by Bliss Independence Model))
same,"synergy, additivity or antagonism of the combination of Example 3 with the anti-cancer drug",[27],+ + + (Synergy relative to each agent alone (CI = 0.4-0.74 by Bliss Independence Model))
same,"synergy, additivity or antagonism of the combination of Example 3 with the anti-cancer drug",[28],+ + + (Synergy relative to each agent alone (CI = 0.4-0.74 by Bliss Independence Model))
same,"synergy, additivity or antagonism of the combination of Example 3 with the anti-cancer drug",[29],+ (Additive relative to each agent alone (CI = 0.9-1 by Bliss Independence Model and <0.9 by Highest Single Agent Model))
